This note sets out measurements from patent US10174024B2, “5H-pyrido[3,2-B]indole compounds as anticancer agents” (BRISTOL-MYERS SQUIBB COMPANY, priority 2015, dated 2019).

For the assay, the target named is BRD4 (Homo sapiens, UniProt O60885). In words: Time Resolved Fluorescence Resonance Energy Transfer (TR-FRET) binding assay, FRET BRD4. To be noted: one of the FRET assays described (BRD4 bromodomain construct not specified); read-out: FRET BRD4 IC50. (In general: Time-resolved FRET reads energy transfer from a long-lived donor to a nearby acceptor.)

As a reminder, the IC50 is the point on the concentration scale where inhibition reaches its midpoint.

As for `Cc1nnn(C)c1-c1cnc2c3ccc(C4(C)CNC(=O)O4)cc3n([C@H](c3ccccc3)C3CCOCC3)c2c1` (single isomer, unassigned) [Example 10], the half-maximal inhibitory concentration (IC50) is below 5 nM.

`[2H]C([2H])([2H])c1nnn(C)c1-c1cnc2c3ccc(N4CCNC4=O)c(F)c3n([C@H](c3ccccc3)C3CCOCC3)c2c1` [Example 59, 1-{6-Fluoro-3-[4-(^2H3)methyl-1-methyl-1H-1,2,3-triazol-5-yl]-5-[(S)-oxan-4-yl(phenyl)methyl]-5H-pyrido[3,2-b]indol-7-yl}imidazolidin-2-one]: the IC50 was below 5 nM.

Regarding `Cc1nnn(C)c1-c1cnc2c3ccc(N4CCC(F)(F)CC4)cc3n(C(c3ccccc3)C3CCC(F)(F)CC3)c2c1` (single isomer, unassigned) [Example 75, 1-{5-[(4,4-Difluorocyclohexyl)(phenyl)methyl]-3-(dimethyl-1H-1,2,3-triazol-5-yl)-5H-pyrido[3,2-b]indol-7-yl}-4,4-difluoropiperidine], the IC50 was below 5 nM.

For the compound `Cc1nnn(C)c1-c1cnc2c3c(N4CCCCS4(=O)=O)ccc(S(C)(=O)=O)c3n([C@H](c3ccccc3)C3CCOCC3)c2c1` [Example 20, 2-[3-(Dimethyl-1H-1,2,3-triazol-5-yl)-6-methanesulfonyl-5-[(S)-oxan-4-yl(phenyl)methyl]-5H-pyrido[3,2-b]indol-9-yl]-1λ^6,2-thiazinane-1,1-dione], the IC50 was below 1 nM.

In the case of `[2H]C([2H])([2H])c1nnn(C)c1-c1cnc2c3ccc(N4CCCC4=O)c(F)c3n([C@H](c3ccccc3)C3CCOCC3)c2c1` [Example 57, 1-{6-Fluoro-3-[4-(^2H3)methyl-1-methyl-1H-1,2,3-triazol-5-yl]-5-[(S)-oxan-4-yl(phenyl)methyl]-5H-pyrido[3,2-b]indol-7-yl}pyrrolidin-2-one], the IC50 is below 1 nM.

In the case of `[2H]C([2H])([2H])c1nnn(C)c1-c1cnc2c3c(N4CCCS4(=O)=O)ccc(S(C)(=O)=O)c3n([C@H](c3ccccc3)C3CCOCC3)c2c1` [Example 26, 2-{6-Methanesulfonyl-3-[4-(^2H3)methyl-1-methyl-1H-1,2,3-triazol-5-yl]-5-[(S)-oxan-4-yl(phenyl)methyl]-5H-pyrido[3,2-b]indol-9-yl}-1λ^6,2-thiazolidine-1,1-dione], the IC50 was below 1500 nM.

For the compound `Cc1nnn(C)c1-c1cnc2c3ccc(-c4ccnn4C)cc3n([C@H](c3ccccc3)C3CCOCC3)c2c1` [Example 1, 1,4-Dimethyl-5-[7-(1-methyl-1H-pyrazol-5-yl)-5-[(S)-oxan-4-yl(phenyl)methyl]-5H-pyrido[3,2-b]indol-3-yl]-1H-1,2,3-triazole], the IC50 is below 5 nM.

Consider “4-{5-[(3-Fluoropyridin-2-yl)(oxan-4-yl)methyl]-3-[4-(^2H3)methyl-1-methyl-1H-1,2,3-triazol-5-yl]-5H-pyrido[3,2-b]indol-7-yl}-1λ^6,4-thiomorpholine-1,1-dione [Example 68]”, for which the IC50 is below 5 nM.

`Cc1nnn(C)c1-c1cnc2c3ccc(N4CCC(C(F)(F)F)CC4)cc3n(C(c3ccccc3)C3CCC(F)(F)CC3)c2c1` (single isomer, unassigned) [Example 78, 1-{5-[(4,4-Difluorocyclohexyl)(phenyl)methyl]-3-(dimethyl-1H-1,2,3-triazol-5-yl)-5H-pyrido[3,2-b]indol-7-yl}-4-(trifluoromethyl)piperidine]: the IC50 was below 5 nM.

`[2H]C([2H])([2H])c1nnn(C)c1-c1cnc2c3ccc(N4CCCS4(=O)=O)c(F)c3n([C@H](c3ncccc3F)C3CCOCC3)c2c1` [Example 61, 2-{6-Fluoro-5-[(S)-(3-fluoropyridin-2-yl)(oxan-4-yl)methyl]-3-[4-(^2H3)methyl-1-methyl-1H-1,2,3-triazol-5-yl]-5H-pyrido[3,2-b]indol-7-yl}-1λ^6,2-thiazolidine-1,1-dione]: the IC50 is below 5 nM.

With `[2H]C([2H])([2H])c1nnn(C)c1-c1ccc2c3ncc(-c4c(C([2H])([2H])[2H])nnn4C)cc3n(C(c3ncccc3F)C3CCOCC3)c2c1` (centres unmarked) [Example 27, 2-({3,7-Bis[4-(^2H3)methyl-1-methyl-1H-1,2,3-triazol-5-yl]-5H-pyrido[3,2-b]indol-5-yl}(oxan-4-yl)methyl)-3-fluoropyridine], the IC50 was below 5 nM.

Regarding `Cc1nnn(C)c1-c1cnc2c3cc(N4CCN(C5COC5)CC4)ccc3n([C@H](c3ccccc3)C3CCOCC3)c2c1` [Example 15, 1-[3-(Dimethyl-1H-1,2,3-triazol-5-yl)-5-[(S)-oxan-4-yl(phenyl)methyl]-5H-pyrido[3,2-b]indol-8-yl]-4-(oxetan-3-yl)piperazine], the IC50 was below 5 nM.

Take `Cc1n[nH]c(C)c1-c1ccc2c3ncc(-c4c(C)nnn4C)cc3n([C@H](c3ccccc3)C3CCOCC3)c2c1` [Example 17, 5-[7-(3,5-Dimethyl-1H-pyrazol-4-yl)-5-[(S)-oxan-4-yl(phenyl)methyl]-5H-pyrido[3,2-b]indol-3-yl]-1,4-dimethyl-1H-1,2,3-triazole]: the IC50 is below 1 nM.

On to `Cc1nnn(C)c1-c1cnc2c3ccc(N4CCC(F)(F)CC4)cc3n([C@H](c3ccccc3)C3CCOCC3)c2c1` [Example 71, 1-[3-(Dimethyl-1H-1,2,3-triazol-5-yl)-5-[(S)-oxan-4-yl(phenyl)methyl]-5H-pyrido[3,2-b]indol-7-yl]-4,4-difluoropiperidine], for which the IC50 is below 1 nM.

Take `Cc1nnn(C)c1-c1cnc2c3ccc(N4CCC(F)(F)CC4)cc3n(C(c3ccccc3)C3CCC(F)(F)CC3)c2c1` (single isomer, unassigned) [Example 76, 1-{5-[(4,4-Difluorocyclohexyl)(phenyl)methyl]-3-(dimethyl-1H-1,2,3-triazol-5-yl)-5H-pyrido[3,2-b]indol-7-yl}-4,4-difluoropiperidine]: the IC50 is below 5 nM.

For the compound `[2H]C([2H])([2H])c1nnn(C)c1-c1ccc2c3ncc(-c4c(C([2H])([2H])[2H])nnn4C)cc3n([C@H](c3ccccc3)C3CCOCC3)c2c1` [Example 31, 4-(^2H3)Methyl-1-methyl-5-{7-[4-(^2H3)methyl-1-methyl-1H-1,2,3-triazol-5-yl]-5-[(S)-oxan-4-yl(phenyl)methyl]-5H-pyrido[3,2-b]indol-3-yl}-1H-1,2,3-triazole], the IC50 was below 1 nM.

Turning to `[2H]C([2H])([2H])c1nnn(C)c1-c1ccc2c3ncc(-c4c(C)nnn4C)cc3n([C@H](c3ccccc3)C3CCOCC3)c2c1` [Example 18, 5-[3-(Dimethyl-1H-1,2,3-triazol-5-yl)-5-[(S)-oxan-4-yl(phenyl)methyl]-5H-pyrido[3,2-b]indol-7-yl]-4-(^2H3)methyl-1-methyl-1H-1,2,3-triazole], the half-inhibitory concentration (IC50) was below 1 nM.

Regarding `COc1nnn(C)c1-c1ccc2c3ncc(-c4c(OC)nnn4C)cc3n([C@H](c3ccccc3)C3CCOCC3)c2c1` [Example 32, 4-Methoxy-5-[7-(4-methoxy-1-methyl-1H-1,2,3-triazol-5-yl)-5-[(S)-oxan-4-yl(phenyl)methyl]-5H-pyrido[3,2-b]indol-3-yl]-1-methyl-1H-1,2,3-triazole], the IC50 was below 1 nM.

With `[2H]C([2H])([2H])c1nnn(C)c1-c1cnc2c3cc(N4CCS(=O)(=O)CC4)ccc3n([C@H](c3ccccc3F)C3CCOCC3)c2c1` [Example 41, 4-{5-[(S)-(2-Fluorophenyl)(oxan-4-yl)methyl]-3-[4-(^2H3)methyl-1-methyl-1H-1,2,3-triazol-5-yl]-5H-pyrido[3,2-b]indol-8-yl}-1λ^6-thiomorpholine-1,1-dione], the IC50 was below 1500 nM.

For the compound `Cc1nnn(C)c1-c1cnc2c3ccc(N4CCN(C5CCN(C)CC5)CC4)cc3n([C@H](c3ccccc3)C3CCOCC3)c2c1` [Example 48, 1-[3-(Dimethyl-1H-1,2,3-triazol-5-yl)-5-[(S)-oxan-4-yl(phenyl)methyl]-5H-pyrido[3,2-b]indol-7-yl]-4-(1-methylpiperidin-4-yl)piperazine], the IC50 is below 1 nM.

For the compound `[2H]C([2H])([2H])c1nnn(C)c1-c1cnc2c3cc(N4CCS(=O)(=O)[C@@H](C)C4)ccc3n([C@H](c3ccccc3F)C3CCOCC3)c2c1` [Example 52, (2S)-4-{5-[(S)-(2-Fluorophenyl)(oxan-4-yl)methyl]-3-[4-(^2H3)methyl-1-methyl-1H-1,2,3-triazol-5-yl]-5H-pyrido[3,2-b]indol-8-yl}-2-methyl-11λ^6,4-thiomorpholine-1,1-dione], the IC50 was below 1 nM.

Regarding `[2H]C([2H])([2H])c1nnn(C)c1-c1cnc2c3ccc(C4(O)CCOC4)c(F)c3n([C@H](c3ccccc3)C3CCOCC3)c2c1` (stereo partly drawn) [Example 63, 3-{6-Fluoro-3-[4-(^2H3)methyl-1-methyl-1H-1,2,3-triazol-5-yl]-5-[(S)-oxan-4-yl(phenyl)methyl]-5H-pyrido[3,2-b]indol-7-yl}oxolan-3-ol], the concentration for half-maximal inhibition (IC50) is below 1 nM.

Turning to `CC(=O)OCC(=O)N1CCN(c2ccc3c(c2)c2ncc(-c4c(C)nnn4C)cc2n3[C@H](c2ccccc2)C2CCOCC2)CC1` [Example 14, 2-{4-[3-(Dimethyl-1H-1,2,3-triazol-5-yl)-5-[(S)-oxan-4-yl(phenyl)methyl]-5H-pyrido[3,2-b]indol-8-yl]piperazin-1-yl}-2-oxoethyl acetate], the IC50 is below 5 nM.

`[2H]C([2H])([2H])c1nnn(C)c1-c1cnc2c3c(N4CCC(F)(F)CC4)ccc(S(C)(=O)=O)c3n(C(c3ccccc3)C3CCC(F)(F)CC3)c2c1` (centres unmarked) [Example 74, 1-{5-[(4,4-Difluorocyclohexyl)(phenyl)methyl]-6-methanesulfonyl-3-[4-(^2H3)methyl-1-methyl-1H-1,2,3-triazol-5-yl]-5H-pyrido[3,2-b]indol-9-yl}-4,4-difluoropiperidine]: the IC50 was below 1500 nM.

For the compound `CC(=O)N1CCC(c2ccc3c(c2)c2ncc(-c4c(C)noc4C)cc2n3[C@H](c2ccccc2)C2CCOCC2)CC1` [Example 7, 1-{4-[3-(Dimethyl-1,2-oxazol-4-yl)-5-[(S)-oxan-4-yl(phenyl)methyl]-5H-pyrido[3,2-b]indol-8-yl]piperidin-1-yl}ethan-1-one], the IC50 was below 1 nM.

Take `[2H]C([2H])([2H])c1nnn(C)c1-c1cnc2c3cc(N4CCN(S(C)(=O)=O)CC4)ccc3n([C@H](c3ccccc3F)C3CCOCC3)c2c1` [Example 42, 1-{5-[(S)-(2-Fluorophenyl)(oxan-4-yl)methyl]-3-[4-(^2Ha)methyl-1-methyl-1H-1,2,3-triazol-5-yl]-5H-pyrido[3,2-b]indol-8-yl}-4-methanesulfonylpiperazine]: the IC50 is below 5 nM.
